ChEMBL document CHEMBL1131026, “D-amino acid containing, high-affinity inhibitors of recombinant human calpain I” (J Med Chem, 1998)
Square brackets hold non-standard residues; d marks the D form. Peptide text beside a SMILES is read from it. * marks the point of attachment. d(hPhe) = N[C@H](CCc1ccccc1)C(=O)O; d2Thi = N[C@H](Cc1cccs1)C(=O)O; dPhg = N[C@@H](C(=O)O)c1ccccc1; Abu = CC[C@H](N)C(=O)O; Bn = c1ccc(C*)cc1; Ms = CS(=O)(=O)*

Assays:
[1] = biological target: Cathepsin B (Homo sapiens, UniProt P07858); assay: Inhibitory activity against cathepsin B receptor in human liver
[2] = biological target: T1, Calpain-1 catalytic subunit (Homo sapiens, UniProt P07384); assay: Inhibition of intracellular Calpain-I receptor using intact cell assay system; assay type: cell-based
T1 sequence (P07384 whole entry): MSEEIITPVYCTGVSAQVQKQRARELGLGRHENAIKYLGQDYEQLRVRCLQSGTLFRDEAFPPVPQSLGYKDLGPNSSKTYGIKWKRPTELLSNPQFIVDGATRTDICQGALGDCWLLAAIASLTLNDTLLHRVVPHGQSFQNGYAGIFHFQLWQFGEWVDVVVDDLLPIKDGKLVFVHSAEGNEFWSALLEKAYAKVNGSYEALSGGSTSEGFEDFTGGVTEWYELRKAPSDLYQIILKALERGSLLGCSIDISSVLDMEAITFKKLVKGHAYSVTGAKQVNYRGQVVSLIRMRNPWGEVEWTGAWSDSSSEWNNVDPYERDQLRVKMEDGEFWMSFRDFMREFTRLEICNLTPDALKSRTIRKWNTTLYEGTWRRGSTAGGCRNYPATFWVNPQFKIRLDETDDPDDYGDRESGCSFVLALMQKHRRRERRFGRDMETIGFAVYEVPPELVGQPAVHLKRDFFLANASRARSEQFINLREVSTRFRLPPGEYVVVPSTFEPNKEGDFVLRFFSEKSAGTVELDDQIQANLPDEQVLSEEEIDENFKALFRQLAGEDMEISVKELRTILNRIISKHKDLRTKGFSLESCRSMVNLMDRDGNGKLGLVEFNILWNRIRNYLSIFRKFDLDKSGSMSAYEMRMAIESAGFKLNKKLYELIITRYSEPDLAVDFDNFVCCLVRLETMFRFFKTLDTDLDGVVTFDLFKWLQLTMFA

[3] = biological target: Prothrombin (Homo sapiens) (UniProt P00734); assay: Inhibitory activity against human plasma thrombin at 10 uM; assay type: cell-free
[4] = biological target: Chymotrypsinogen A (Bos taurus) (UniProt P00766); assay: Inhibitory activity against Bovine pancreas alpha-chymotrypsin at 10 uM
[5] = biological target: T1, Calpain-1 catalytic subunit; assay: Inhibitory activity against recombinant human Calpain-I receptor

Row | Ki [1] | IC50 [2] | inhibition [3] | inhibition [4] | Ki [5] | SMILES
1 | – | – | – | – | 11 nM | CS(=O)(=O)N[C@H](CS(=O)(=O)Cc1ccccc1)C(=O)N[C@H](C=O)Cc1ccccc1
2 | 44 nM | 500 nM | 0% | 3% | 9 nM | CC(OCc1ccccc1)[C@@H](NS(C)(=O)=O)C(=O)N[C@H](C=O)Cc1ccccc1 (some centres not stated)
3 | – | – | – | – | 29 nM | CC(C)C[C@@H](NS(C)(=O)=O)C(=O)N[C@H](C=O)Cc1ccccc1 (Ms-[dL]-Phe-aldehyde)
4 | – | – | – | – | 9 nM | CS(=O)(=O)N[C@@H](C(=O)N[C@H](C=O)Cc1ccccc1)c1ccccc1 (Ms-[dPhg]-Phe-aldehyde)
5 | – | – | – | – | 130 nM | CCNC(=O)C(=O)[C@H](Cc1ccccc1)NC(=O)[C@@H](COCc1ccccc1)NS(C)(=O)=O
6 | – | – | – | – | 370 nM | CN([C@H](COCc1ccccc1)C(=O)N[C@H](C=O)Cc1ccccc1)S(C)(=O)=O
7 | – | – | – | – | 9 nM | O=C[C@H](Cc1ccccc1)NC(=O)[C@@H](COCc1ccccc1)NS(=O)(=O)c1cccs1
8 | 45 nM | 700 nM | 0% | 0% | 4 nM | CS(=O)(=O)N[C@H](COCc1ccccc1)C(=O)N[C@H](C=O)Cc1ccc(OCc2ccccc2)cc1 (Ms-[dS](Bn)-Tyr(Bn)-aldehyde)
9 | – | – | – | – | 22 nM | O=C[C@H](Cc1ccccc1)NC(=O)[C@@H](COCc1ccccc1)NS(=O)(=O)c1ccccc1

The next lines start with the compound.

Row | SMILES | Ki [1] | IC50 [2] | inhibition [3] | inhibition [4] | Ki [5]
10 | CS(=O)(=O)N[C@H](COCc1ccccc1)C(=O)N[C@H](C=O)Cc1ccccc1 | 32 nM | 700 nM | 0% | 23% | 8 nM
11 | CS(=O)(=O)NC(COCc1ccccc1)C(=O)N[C@H](C=O)Cc1ccccc1 (single isomer, unassigned) | – | – | – | – | 41 nM
12 | CS(=O)(=O)N[C@H](Cc1cccs1)C(=O)N[C@H](C=O)Cc1ccccc1 (Ms-[d2Thi]-Phe-aldehyde) | 23 nM | 300 nM | 0% | 0% | 11 nM
13 | CS(=O)(=O)N[C@H](Cc1c[nH]c2ccccc12)C(=O)N[C@H](C=O)Cc1ccccc1 (Ms-[dW]-Phe-aldehyde) | – | – | – | – | 10 nM
14 | CCS(=O)(=O)N[C@H](COCc1ccccc1)C(=O)N[C@H](C=O)Cc1ccccc1 | 45 nM | 400 nM | 9% | 15% | 9 nM
15 | CS(=O)(=O)N[C@H](Cc1ccccc1)C(=O)N[C@H](C=O)Cc1ccccc1 (Ms-[dF]-Phe-aldehyde) | 120 nM | 600 nM | 0% | 12% | 11 nM
16 | CS(=O)(=O)N[C@H](CSCc1ccccc1)C(=O)N[C@H](C=O)Cc1ccccc1 (Ms-[dC](Bn)-Phe-aldehyde) | 41 nM | 800 nM | 7% | 16% | 6 nM
17 | CC[C@@H](C=O)NC(=O)[C@@H](COCc1ccccc1)NS(C)(=O)=O (Ms-[dS](Bn)-[Abu]-aldehyde) | – | – | – | – | 36 nM
18 | CS(=O)(=O)N[C@H](COCc1ccccc1)C(=O)N[C@H](C=O)CCCCNS(=O)(=O)c1ccccc1 | 4 nM | 400 nM | 0% | 13% | 2 nM
19 | CS(=O)(=O)N[C@H](CCc1ccccc1)C(=O)N[C@H](C=O)Cc1ccccc1 (Ms-[d(hPhe)]-Phe-aldehyde) | – | – | – | – | 28 nM
20 | CC(C)C[C@@H](C=O)NC(=O)[C@@H](COCc1ccccc1)NS(C)(=O)=O (Ms-[dS](Bn)-Leu-aldehyde) | – | – | – | – | 66 nM
